Data as given in article PMC5668376, “Stochastic palmitoylation of accessible cysteines in membrane proteins revealed by native mass spectrometry” (Nature Communications, 2017).

Target: T1, bacteriorhodopsin (Halobacterium salinarum, UniProt P02945)
T1 construct: gene bop; synthetic gene (GeneArt), start codon from vector, C-terminal triple StrepII tag, transiently expressed retinal-free in HEK293-EBNA1, purified in DDM; cysteine-free parent protein
T1 sequence (P02945 14-262): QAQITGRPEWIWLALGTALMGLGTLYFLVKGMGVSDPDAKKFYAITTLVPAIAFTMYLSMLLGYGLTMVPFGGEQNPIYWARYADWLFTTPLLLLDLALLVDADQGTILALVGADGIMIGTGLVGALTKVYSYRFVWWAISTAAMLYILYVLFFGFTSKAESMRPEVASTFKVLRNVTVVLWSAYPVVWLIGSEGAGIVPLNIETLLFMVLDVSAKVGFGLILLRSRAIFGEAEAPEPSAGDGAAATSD
Assay: native mass spectrometry of purified protein
Type: binding
Conditions: retinal added during purification; DDM micelles; 150 mM ammonium acetate pH 7.5; isomer not stated

In the case of `CC1=C(/C=C/C(C)=C/C=C/C(C)=C/C=O)C(C)(C)CCC1` [retinal], the “native mass spectrometry of purified protein” value is reported as “Upon addition of retinal during purification, bacteriorhodopsin mass spectra indicated peaks corresponding to the mass”.
